{"source": "patent US20100305183A1", "about": "“METHOD AND COMPOSITION FOR REDUCING REPERFUSION INJURY” (Adelaide Research & Innovation Pty Ltd, priority 2006, published 2010)", "type_in_all_cases": "in vivo", "key": {"[1]": {"test_system": "rats subject to ischaemia/reperfusion injury", "assay": "Rotarod test of motor function after reversible stroke and reperfusion", "settings": "2 h occlusion, over ensuing 7 days, FIG. 4", "experimental": "Anaesthetised rats were subject to 2 hours reversible stroke using the intraluminal thread model of middle cerebral artery occlusion. At 2 hours, reperfusion was initiated by withdrawing the thread and following a further 2 hours, N-acetyl-L-tryptophan (10^-5 mol/kg) or […],060 (1 mg/kg) was administered by intravenous injection."}, "[2]": {"test_system": "blood brain barrier", "assay": "Evan's blue leakage into brain tissue following injury", "settings": "dose-dependent, FIG. 1", "source_text": "We chose to use the compound N-acetyl-L-tryptophan (NAT)."}, "[3]": {"test_system": "IL-1β, IL-6 and TNFα mRNA", "assay": "RT-PCR of inflammatory cytokine mRNA in brain tissue after hypoxia and hypotension", "settings": "rats, 10^−5 mol/kg intravenous after hypoxia and hypotension, 6 hours after injury, normalised to rpL32", "experimental": "In order to induce the inflammatory response associated with reperfusion, anaesthetised rats were subject to 15 minutes of hypoxia (PAO2 30-40 mmHg) and hypotension (MABP 40 mmHg), before blood oxygen level and blood pressure were restored to normal levels. In order to examine the effects of a substance P antagonist on the inflammatory response, N-acetyl-L-tryptophan was administered intravenously at a dose of 10^−5 mol/kg after hypoxia and hypotension. The expression of mRNA for the inflammatory cytokines IL-1β, IL-6 and TNFα in brain tissue was determined by reverse transcription followed by a polymerase chain reaction (RT-PCR). mRNA levels were normalised with respect to expression of rpL32. Brain tissue samples were collected at 6 hours after injury. Levels of expression of mRNA for the inflammatory cytokines were compared between non-ischaemic animals (control), ischaemic animals administered drug vehicle alone (ischaemia), and ischaemic animals administered a substance P receptor antagonist (NK1). mRNA expression was determined for IL-1β (FIG. 5a), IL-6 (FIG. 5b) and TNFα (FIG. 5c)."}, "[4]": {"test_system": "rats subject to ischaemia/reperfusion injury", "assay": "Oedema after reversible stroke (intraluminal thread model of middle cerebral artery occlusion) and reperfusion", "settings": "2 h occlusion, 10^−5 mol/kg intravenous 2 h after reperfusion, FIG. 3", "experimental": "To this end, anaesthetised rats were subject to 2 hours reversible stroke using the intraluminal thread model of middle cerebral artery occlusion. At 2 hours, reperfusion was initiated by withdrawing the thread and following a further 2 hours, N-acetyl-L-tryptophan (10^−5 mol/kg) was administered by intravenous injection. There was a significant increase in oedema at 24 h following ischaemia/reperfusion injury."}, "[5]": {"test_system": "blood brain barrier", "assay": "Blood brain barrier permeability induced by injection of tPA in naïve (uninjured) animal", "settings": "FIG. 2"}, "[6]": {"test_system": "IL-6", "assay": "Serum IL-6 by ELISA after hypoxia and hypotension", "settings": "rats; 10^−5 mol/kg intravenous after hypoxia and hypotension; blood at 6 hours after the insult; FIG. 6", "experimental": "In order to induce the inflammatory response associated with reperfusion, anaesthetised rats were subject to 15 minutes of hypoxia (PAO2 30-40 mmHg) and hypotension (MABP 40 mmHg), before blood oxygen level and blood pressure were restored to normal levels. In addition, serum interleukin 6 levels were also determined. Blood samples were collected at 6 hours after the insult. Changes in serum IL-6 levels were quantified using an enzyme-linked immunosorbent assay (ELISA). Serum levels of IL-6 were compared between animals that were not subject to ischaemia (control), animals subject to ischaemia followed by administration of drug vehicle alone (ischaemia), and animals subject to ischaemia followed by administration of a substance P receptor antagonist (NK1) (FIG. 6)."}}, "data": [{"compound": "FC(F)(F)c1cc(CO[C@H]2CCCN[C@H]2c2ccccc2)cc(C(F)(F)F)c1", "note": "[L733,060]", "values": [{"measurement": "functional outcome, rotarod test of motor function", "setting": "[1]; 1 mg/kg intravenous 2 h after reperfusion", "result": "improved functional outcome"}]}, {"compound": "CC(=O)N[C@@H](Cc1c[nH]c2ccccc12)C(=O)O", "note": "[N-acetyl-L-tryptophan]", "values": [{"measurement": "leakage of Evan's blue dye into the brain tissue (blood brain barrier closure)", "setting": "[2]", "result": "reduced leakage of Evan's blue dye into the brain tissue"}, {"measurement": "expression of IL-1β mRNA in brain tissue with respect to non-ischaemic animals", "setting": "[3]; FIG. 5a", "result": "no significant differences"}, {"measurement": "expression of IL-6 mRNA in brain tissue with respect to non-ischaemic animals", "setting": "[3]; FIG. 5b", "result": "no significant differences"}, {"measurement": "expression of TNFα mRNA in brain tissue with respect to non-ischaemic animals", "setting": "[3]; FIG. 5c", "result": "no significant differences"}, {"measurement": "oedema at 24 h following ischaemia/reperfusion injury", "setting": "[4]", "result": "significantly attenuated"}, {"measurement": "permeability of the blood brain barrier induced by tPA", "setting": "[5]; NAT 10^−5 mol/kg, tPA (Actilyse) injected to naïve (uninjured) animal", "result": "prevented the increased permeability of the blood brain barrier"}, {"measurement": "increase in serum IL-6 levels", "setting": "[6]", "result": "this response was not observed"}, {"measurement": "functional outcome, rotarod test of motor function", "setting": "[1]; 10^−5 mol/kg intravenous 2 h after reperfusion", "result": "profound improvement in functional outcome"}]}, {"compound": "tPA: tissue plasminogen activator, a thrombolytic agent", "values": [{"measurement": "permeability of the blood brain barrier after tPA alone", "setting": "[5]; tPA (Actilyse) alone to naïve (uninjured) animal", "result": "increased permeability of the blood brain barrier"}]}]}
